In publication PMC4368200, “Triclabendazole Sulfoxide Causes Stage-Dependent Embryolethality in Zebrafish and Mouse In Vitro” (PLoS ONE, 2015):
Where “and” joins values, the source holds several entries; their conditions need not be identical. Equal entries are not always repeated. Marks after values point to notes of the source that are not given here.

Columns and labels:
rat whole embryo culture = system: rat whole embryo culture; set-up: method as in PMID 22652462; details: ref 16; cited from earlier work
zebrafish embryos [1] = assay: Zebrafish embryo test (ZFET); type: in vivo, Danio rerio; details: for Dysmorphogenic embryos / Morphological score: 50 hpf
Description: The day before the test, adult male and female zebrafish were transferred (1:1) to breeding tanks (Aquaneering, San Diego, California). Artificial plants and marbles were used as spawning substrate. Spawning and fertilization took place within 30 min after the onset of light in the morning. Eggs were collected and extensively cleaned with ISO-standard 7346 water diluted 1:5 using deionized water. Fertilized eggs were selected under a dissection stereomicroscope (Motic SMZ168, Motic China group, LTD., China). The eggs presenting overt anomalies like asymmetries, formation of vesicles or damaged membranes were discarded.
Exposure and evaluation of eggs was performed as described before with slight variations. At 2 hours post-fertilization (hpf) fertilized eggs were selected and transferred to 6-well plates (Greiner Bio-one, Germany). Ten embryos were randomly distributed into wells and filled with 5 mL of freshly prepared test solutions. TCBZ, TCBZSO, ABZ and ABZSO were dissolved in DMSO and subsequently diluted in 0.3x Danieau’s buffer to a final DMSO concentration of 0.05% (v/v). Embryos were incubated at 26 ± 1°C with a dark-light cycle of 10–14 h for 48 h. Embryolethality was determined at 8 hpf on the basis of egg coagulation, at 26 hpf by the absence of tail detachment or somites formation, and at 50 hpf by the absence of heartbeat. Developmental and teratogenic effects were assessed at 50 hpf by the total morphological score described in [32].
The working concentrations for ZFET experiments were 0.1 μM, 0.5 μM, 1 μM, 2.5 μM and 5 μM for TCBZ studies and 0.5 μM, 1 μM, 2.5 μM, 5 μM, 10 μM and 50 μM for TCBZSO. The experiments with ABZ were performed including concentrations of 0.025 μM, 0.05 μM, 0.1 μM, 0.3 μM and 0.5 μM and for ABZSO they included 1 μM, 6 μM, 12 μM, 25 μM and 50 μM.

[2] = reviewed and transformed to μM by 13; cited from earlier work
zebrafish embryos [3] = details: ref 19, 20; cited from earlier work
[4] = system: rat embryos explanted at GD 9.5; assay: Postimplantation whole embryo culture (postWEC); set-up: species or system Sprague Dawley rats; key to Yolk sac circulation (median): 1 = few/abnormal vessels, 2 = delayed, 3 = complete vascularization; key to Morphological score: sum of structure scores; higher = more advanced differentiation; details: for Crown-rump length / Dysmorphogenic embryos / Morphological score / Somites number / Yolk sac circulation (median): 48 h
Description: Nulliparous female rats, which were checked to be in the oestrus phase of the oestrous cycle, were housed with adult males (1:1) for 4 h, considering 2 h of light and 2 h of darkness. Mating was confirmed by the presence of sperm in vaginal smear, and the following 24 h were considered as gestational day 0 (GD 0).
Rat embryos were explanted and evaluated as described before with some variations. Briefly, embryos were explanted at GD 9.5 under sterile conditions. Two embryos were incorporated in flasks filled with 3.5 mL of culture medium which contained 20% of rat serum and 80% of serum mixture (Biochrom AG; Berlin, Germany). TCBZ, TCBZSO, ABZ and ABZSO were dissolved in dimethyl sulfoxide (DMSO; Sigma Aldrich Spain) and added to the culture medium to a final DMSO concentration of 0.1%. Culture flasks were oxygenated at the beginning of the culture with a gas mixture containing 12% O2 and after 38 h with a gas mixture containing 50% O2. Embryos were cultured at a temperature of 38°C, under rotation at a speed of 25 rpm (Noria R, Ovan Spain) for 48 h. After this period, embryos presenting yolk sac circulation and heartbeat were considered alive and were selected for further evaluation. The yolk sac circulation was evaluated according to the level of formation of blood vessels, giving a score of 1 in the cases in which few vessels were observed or the vascularization was abnormal, a score of 2 when a delay in vascularization was observed and 3 for complete vascularization, as previously described in [35]. Growth evaluation was assessed by crown-rump length and differentiation was evaluated by counting the number of somites and the morphological score. This score is the sum of the scores given to several embryonic structures depending on their differentiation stage, corresponding higher values with higher stages of differentiation. Furthermore, the percentage of dysmorphogenesis was calculated according to [36].
For the postWEC experiments, the selected concentrations were 140 μM, 278 μM and 556 μM for TCBZ and 267 μM, 666 μM and 932 μM for TCBZSO. The tested concentrations for ABZ analysis were 0.4 μM, 1.1 μM and 1.9 μM and for ABZSO were 3.4 μM, 9 μM, 12 μM, 14 μM and 16 μM.

CCCSc1ccc2nc(NC(=O)OC)[nH]c2c1 [ABZ, methyl-5-(propylthio)-2-benzimidazole-carbamate]
postWEC LOAEC, in vitro literature (rat whole embryo culture): 3.7 [16] μM | Lethality (zebrafish embryos [1]; 0.025 μM, 2-50 hpf): 7% | Dysmorphogenic embryos (zebrafish embryos [1]; 0.025 μM): 0% | Morphological score (zebrafish embryos [1]; 0.025 μM): 36.0 ± 0.0 | Frequency of dysmorphogenesis: Cardiac oedema (zebrafish embryos [1]; 0.05 µM): 3.3% | Lethality (zebrafish embryos [1]; 0.05 μM, 2-50 hpf): 0% | Dysmorphogenic embryos (zebrafish embryos [1]; 0.05 μM): 3.3% | Morphological score (zebrafish embryos [1]; 0.05 μM): 35.9 ± 0.2 | Frequency of dysmorphogenesis: Cardiac oedema (zebrafish embryos [1]; 0.1 µM): 2.5% | Lethality (zebrafish embryos [1]; 0.1 μM, 2-50 hpf): 0% | Dysmorphogenic embryos (zebrafish embryos [1]; 0.1 μM): 2.5% | Morphological score (zebrafish embryos [1]; 0.1 μM): 35.9 ± 0.2 | Frequency of dysmorphogenesis: Cardiac oedema (zebrafish embryos [1]; 0.3 µM): 72% | Frequency of dysmorphogenesis: Developmental delay (zebrafish embryos [1]; 0.3 µM): 72% | Frequency of dysmorphogenesis: Eye pigmentation (zebrafish embryos [1]; 0.3 µM): 16% | Frequency of dysmorphogenesis: Head-body pigmentation (zebrafish embryos [1]; 0.3 µM): 40% | Frequency of dysmorphogenesis: Movement (zebrafish embryos [1]; 0.3 µM): 32% | Lethality (zebrafish embryos [1]; 0.3 μM, 2-50 hpf): 17 ^* % | Dysmorphogenic embryos (zebrafish embryos [1]; 0.3 μM): 72 ^* % | Morphological score (zebrafish embryos [1]; 0.3 μM): 25.5 ± 2.1 | Lethality (zebrafish embryos [1]; 0.5 μM, 2-50 hpf): 100% and 100 ^* % | ZFET LOAEC dysmorphogenesis (zebrafish embryos [1]; 2-50 hpf): 0.3 µM | ZFET LOAEC lethality (zebrafish embryos [1]; 2-50 hpf): 0.3 µM | Plasma concentrations at teratogenic doses [2]: 0.94 ([47]; reviewed and transformed to μM by [13]) | ZFET LOAEC, in vitro literature (zebrafish embryos [3]): 0.3 [19, 20] μM | Crown-rump length ([4]; 0.4 μM): 3.5 ± 0.1 mm | Dysmorphogenic embryos ([4]; 0.4 μM): 0% | Morphological score ([4]; 0.4 μM): 38.9 ± 0.6 | Somites number ([4]; 0.4 μM): 25.8 ± 1.9 | Yolk sac circulation (median) ([4]; 0.4 μM): 3.0 | Frequency of dysmorphogenesis: Branchial bars ([4]; 1.1 µM): 50% | Frequency of dysmorphogenesis: Heart ([4]; 1.1 µM): 12.5% | Frequency of dysmorphogenesis: Subcutaneous blisters ([4]; 1.1 µM): 50% | Frequency of dysmorphogenesis: Yolk sac ([4]; 1.1 µM): 25% | Crown-rump length ([4]; 1.1 μM): 3.2 ± 0.2 mm | Dysmorphogenic embryos ([4]; 1.1 μM): 50 ^* % | Morphological score ([4]; 1.1 μM): 30.8 ± 2.1 | Somites number ([4]; 1.1 μM): 23.9 ± 1.1 | Yolk sac circulation (median) ([4]; 1.1 μM): 3.0 | Frequency of dysmorphogenesis: Branchial bars ([4]; 1.9 µM): 100% | Frequency of dysmorphogenesis: Caudal part ([4]; 1.9 µM): 37.5% | Frequency of dysmorphogenesis: Flexion ([4]; 1.9 µM): 12.5% | Frequency of dysmorphogenesis: Head ([4]; 1.9 µM): 62.5% | Frequency of dysmorphogenesis: Heart ([4]; 1.9 µM): 37.5% | Frequency of dysmorphogenesis: Subcutaneous blisters ([4]; 1.9 µM): 37.5% | Frequency of dysmorphogenesis: Yolk sac ([4]; 1.9 µM): 75% | Crown-rump length ([4]; 1.9 μM): 2.9 ± 0.4 mm | Dysmorphogenic embryos ([4]; 1.9 μM): 100 ^* % | Morphological score ([4]; 1.9 μM): 26.4 ± 5.2 | Somites number ([4]; 1.9 μM): 21.9 ± 4.5 | Yolk sac circulation (median) ([4]; 1.9 μM): 1.0 ^* | postWEC LOAEC ([4]; GD 9.5-11.5, 48 h): 1.1 µM
